One data set concerns Cyp1a1 and Cyp1a2. In words: Ethoxyresorufin de-ethylation activity (EROD) of liver microsomes. The class given is in vivo, mouse. The settings on record: both strains. From the text:
(B)—Ethoxyresorufin de-ethylation; (C)—methoxyresorufin de-methylation. Data are mean±SD (n=4).
Ethoxyresorufin de-ethylation activity (EROD) was similar in both Cyp3a cluster KO and wild type mouse liver microsomes. EROD is catalysed by both Cyp1a 1 and Cyp1a2 isoforms, with Cyp1a1 making the major contribution. […] There was no difference in methoxyresoryfin de-methylation (MROD) activity between wild type and Cyp3a cluster KO mice. MROD is catalysed predominantly by Cyp1a2.

How the values of data set [1] were obtained: The study consisted of 4 groups with 4 animals per group. […] On day 4 of the study midazolam (1 mg/kg) was administered by IP injection and 10 μL blood samples were collected at 10, 20, 40, 60, 120, 240 and 360 min for PK analysis (Table 1).
A short description of data set [2]: 1'-Hydroxymidazolam pharmacokinetics after IV or oral midazolam. The settings on record: for Decrease in AUC for 1'-hydroxymidazolam compared to wild type: midazolam 1 mg/kg IV, rifampicin pre-treated. As for the experimental part: On day 4 of the study midazolam (1 mg/kg) was administered by IV injection to animals from groups 1-6 and orally (2 mg/kg) to mice from groups 7-9. Blood samples were collected at 2, 5, 10, 20, 30, 45, 60, 90, 120 and 150 min (serial bleeds) after IV dosing, at 10, 20, 40, 60, 90, 120, 240 and 360 min after the oral dosing, for PK analysis (Table 3).
Total concentrations of 1′-hydroxymidazolam were measured following pre-treatment of blood with B-glucuronidase. The pharmacokinetics of the 1′-hydroxymidazolam after the IV injection of the parent compound are presented on FIG. 1s.

Data set [3] deals with Cyp3a. The data set can be described thus: Oxidation of BFC by liver and intestinal microsomes. In kind it is in vitro ADME, mouse.
The test system of data set [4] is Cyp3a. The data set can be described thus: Oxidation of DBF by liver and intestinal microsomes.
The subject of data set [5] is Cyp3a. The data set can be described thus: 6β-Hydroxylation of testosterone by liver and intestinal microsomes. The settings on record: Cyp3a cluster KO and Cyp3a11 KO.
The next data set has as its system Cyp2b10 and Cyp2c29. In words: 16β-Hydroxylation of testosterone by liver microsomes. The settings on record: liver microsomes of both transgenic strains. On the technique in general: Liver microsomes are vesicles of endoplasmic reticulum, rich in cytochrome P450 enzymes.
Data set [6] has as its system Cyp3a. The data set can be described thus: Oxidation of 7-BQ by liver microsomes.

SMILES strings stand for the structures. “Also recorded” adds a separate entry of the source.

On to `CO[C@H]1/C=C/O[C@@]2(C)Oc3c(C)c(O)c4c(O)c(c(/C=N/N5CCN(C)CC5)c(O)c4c3C2=O)NC(=O)/C(C)=C\C=C\[C@H](C)[C@H](O)[C@@H](C)[C@@H](O)[C@@H](C)[C@H](OC(C)=O)[C@@H]1C` [rifampicin], for which, in the data set on Cyp1a1 and Cyp1a2, the “EROD metabolism after rifampicin” value was “small induction”. Also, the “Effect of rifampicin treatment on midazolam elimination” value in data set [1] (rifampicin 60 mg/kg 3 daily doses, midazolam 1 mg/kg IP day 4, both strains, higher effect in C57BL/6J) was “accelerated elimination”.
As to `OCc1ncc2n1-c1ccc(Cl)cc1C(c1ccccc1F)=NC2` [1′-hydroxymidazolam], the figures for the “Decrease in AUC for 1'-hydroxymidazolam compared to wild type” value in data set [2] (Cyp3a11 KO) and in data set [2] (Cyp3a cluster KO) were approximately 2 times and approximately 3 times, respectively. Further, the “Terminal phase elimination of 1'-hydroxymidazolam compared to other strains” value in data set [2] (Cyp3a cluster KO, midazolam IV) is “slightly slower elimination”.
`Cc1ncc2n1-c1ccc(Cl)cc1C(c1ccccc1F)=NC2` [midazolam]: in data set [1] (midazolam 1 mg/kg IP, both mouse strains), the “Absorption after IP administration” value is given as “fast absorption”. Further, the “Midazolam AUC / PK, Cyp3a cluster KO compared to wild type” value in data set [1] (midazolam 1 mg/kg IP, control (untreated) animals) is on record as “similar; also recorded: no difference”. Also, in data set [1] (rifampicin treated mice), the “Difference in midazolam AUC, Cyp3a cluster KO vs wild type” value was 1.6 times.
As to `O=c1cc(C(F)(F)F)c2ccc(OCc3ccccc3)cc2o1` [BFC, 7-benzyloxy-4-trifluoromethylcoumarin], in the data set with Cyp3a [3] (C57BL/6J, Cyp3a cluster KO, Cyp3a11 KO liver microsomes), the “BFC activity between liver microsomal samples” value is recorded as “no difference”. Further, in the data set on Cyp3a [3] (intestinal microsomes), the “BFC oxidation in intestinal microsomes of transgenic mice” value is “small but statistically significant increase”.
In the case of `O=C(OCc1ccccc1)c1ccccc1-c1c2ccc(=O)cc-2oc2cc(OCc3ccccc3)ccc12` [DBF, dibenzylfluorescein], the “DBF oxidation by liver microsomes compared to wild type” value in the data set with Cyp3a [4] (Cyp3a cluster KO and Cyp3a11 KO) is given as “pronounced decrease”. For the same compound, the “DBF oxidation by intestinal microsomes, wild type vs knockout strains” value in the data set on Cyp3a [4] (intestinal microsomes) is reported as “no statistically significant difference”.
With `C[C@]12CC[C@H]3[C@@H](CCC4=CC(=O)CC[C@@]43C)[C@@H]1CC[C@@H]2O` [testosterone], the “6β-hydroxylation of testosterone compared to wild type” value in the data set on Cyp3a [5] is recorded as “significant decrease”. Further, the “16β-Hydroxylation of testosterone compared to wild type” value with Cyp2b10 and Cyp2c29 is given as “increased”.
On to `c1ccc(COc2ccc3cccnc3c2)cc1` [7-BQ, 7-benzyloxyquinoline], for which the “Activity towards 7-BQ in Cyp3a cluster KO, level compared to the wild type mice” value with Cyp3a [6] (conclusion statement) was “below 20%”. Moreover, the “7-BQ oxidation in Cyp3a cluster KO liver microsomes, % of corresponding C57BL/6J group” value stood at 18% in the data set on Cyp3a [6] (control animals) and 6.7% in the data set on Cyp3a [6] (rifampicin treated animals).

Source of the values: US8809619B2, “Knockout mice for a P450 gene cluster” (ITI Scotland Limited, priority 2007, dated 2014).
